Among the data in patent US9856250B2, “Substituted tropane derivatives” (TOA EIYO LTD., priority 2014, dated 2018) are IC50 values, retold here.

Molecules are shown by their SMILES.

The first assay deals with human T-type calcium channels (human Cav3.2) (Homo sapiens (Human), UniProt O95180). Nature of the assay: Antagonistic activity against T-type calcium channels (Cav3.2), Fura2 intracellular calcium assay in HEK293 cells.
Chain of human T-type calcium channels (human Cav3.2) (O95180 whole entry): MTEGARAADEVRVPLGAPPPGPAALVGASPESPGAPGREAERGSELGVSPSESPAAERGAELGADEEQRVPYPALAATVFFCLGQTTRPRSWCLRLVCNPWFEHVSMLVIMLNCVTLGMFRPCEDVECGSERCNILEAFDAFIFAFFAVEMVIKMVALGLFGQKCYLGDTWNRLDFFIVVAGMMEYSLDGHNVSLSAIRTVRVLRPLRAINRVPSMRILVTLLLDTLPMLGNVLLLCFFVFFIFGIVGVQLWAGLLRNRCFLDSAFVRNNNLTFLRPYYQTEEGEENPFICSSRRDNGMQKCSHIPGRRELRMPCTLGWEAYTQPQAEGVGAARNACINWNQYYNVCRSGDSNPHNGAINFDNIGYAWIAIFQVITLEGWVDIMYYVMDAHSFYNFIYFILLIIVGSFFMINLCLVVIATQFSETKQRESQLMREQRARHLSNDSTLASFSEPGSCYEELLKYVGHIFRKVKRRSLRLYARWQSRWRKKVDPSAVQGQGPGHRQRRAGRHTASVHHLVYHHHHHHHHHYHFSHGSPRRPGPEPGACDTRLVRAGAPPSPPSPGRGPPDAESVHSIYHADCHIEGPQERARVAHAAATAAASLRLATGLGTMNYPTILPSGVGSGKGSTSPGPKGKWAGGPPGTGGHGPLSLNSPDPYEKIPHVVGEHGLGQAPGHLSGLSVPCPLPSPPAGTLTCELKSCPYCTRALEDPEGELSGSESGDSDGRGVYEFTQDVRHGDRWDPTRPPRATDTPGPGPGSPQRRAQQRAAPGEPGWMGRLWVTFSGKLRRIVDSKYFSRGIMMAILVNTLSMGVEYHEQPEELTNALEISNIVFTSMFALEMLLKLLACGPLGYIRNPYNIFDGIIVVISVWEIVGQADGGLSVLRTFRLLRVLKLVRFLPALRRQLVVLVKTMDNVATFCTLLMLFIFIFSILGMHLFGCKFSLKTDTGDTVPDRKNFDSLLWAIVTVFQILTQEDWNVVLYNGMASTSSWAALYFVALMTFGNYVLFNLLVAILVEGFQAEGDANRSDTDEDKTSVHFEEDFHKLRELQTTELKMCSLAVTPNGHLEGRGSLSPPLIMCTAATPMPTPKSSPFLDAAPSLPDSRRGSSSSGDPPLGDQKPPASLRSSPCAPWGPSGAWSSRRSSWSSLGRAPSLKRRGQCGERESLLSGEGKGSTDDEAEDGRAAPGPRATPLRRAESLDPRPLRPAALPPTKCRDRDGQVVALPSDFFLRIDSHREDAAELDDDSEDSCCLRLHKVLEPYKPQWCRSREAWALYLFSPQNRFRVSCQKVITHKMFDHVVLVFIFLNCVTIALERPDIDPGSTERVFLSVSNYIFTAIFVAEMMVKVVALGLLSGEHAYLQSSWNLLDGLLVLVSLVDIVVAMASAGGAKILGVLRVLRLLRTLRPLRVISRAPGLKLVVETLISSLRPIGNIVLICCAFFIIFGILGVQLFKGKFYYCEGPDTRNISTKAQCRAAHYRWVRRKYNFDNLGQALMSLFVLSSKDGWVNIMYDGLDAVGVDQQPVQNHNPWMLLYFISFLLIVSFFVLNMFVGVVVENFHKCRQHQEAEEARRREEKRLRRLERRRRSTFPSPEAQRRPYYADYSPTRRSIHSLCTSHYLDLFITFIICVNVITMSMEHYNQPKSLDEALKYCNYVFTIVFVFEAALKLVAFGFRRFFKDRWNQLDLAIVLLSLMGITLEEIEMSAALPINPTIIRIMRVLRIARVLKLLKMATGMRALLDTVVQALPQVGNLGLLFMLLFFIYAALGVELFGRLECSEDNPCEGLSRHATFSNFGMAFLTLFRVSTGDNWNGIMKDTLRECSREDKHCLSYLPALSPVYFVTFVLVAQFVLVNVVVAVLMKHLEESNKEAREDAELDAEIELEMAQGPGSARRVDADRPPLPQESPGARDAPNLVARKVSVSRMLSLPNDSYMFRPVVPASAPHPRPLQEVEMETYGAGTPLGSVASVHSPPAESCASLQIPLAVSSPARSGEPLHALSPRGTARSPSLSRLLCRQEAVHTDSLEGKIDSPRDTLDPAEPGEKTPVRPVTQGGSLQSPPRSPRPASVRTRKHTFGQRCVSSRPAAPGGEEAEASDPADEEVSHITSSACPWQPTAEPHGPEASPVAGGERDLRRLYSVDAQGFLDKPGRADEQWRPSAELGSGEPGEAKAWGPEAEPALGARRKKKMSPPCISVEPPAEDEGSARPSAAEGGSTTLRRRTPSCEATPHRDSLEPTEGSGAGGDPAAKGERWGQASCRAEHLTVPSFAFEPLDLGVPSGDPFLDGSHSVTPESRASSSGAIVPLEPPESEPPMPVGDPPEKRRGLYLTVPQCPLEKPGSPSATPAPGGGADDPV
Conditions: not given
The class given is cell-based. How it is done:
For representative compounds of the present invention, the antagonistic activity against T-type calcium channels (Cav3.2) was examined by the Test Examples described below. For the respective tests, human embryo kidney cells (HEK293 cells) in which human T-type calcium channels (human Cav3.2) were stably expressed were used.
The HEK293 cells having human Cav3.2 stably expressed therein were cultured at 37° C. in Alpha-MEM, to which 10% (v/v) fetal bovine serum (FBS), penicillin (100 U/mL), streptomycin (100 μg/mL), and G418 ([…]) had been added. The cells were suspended in the culture liquid and were inoculated onto a 96-well plate. Subsequently, the cells were cultured for 48 hours. The culture liquid was removed, and the liquid was changed to S-MEM, to which 5% (v/v) FBS, calcium chloride (0.5 mmol/L), L-glutamine (2 mmol/L), L-alanine (8.9 ng/mL), L-asparagine (13.2 ng/mL), L-aspartic acid (1.33 ng/mL), L-glutamic acid (14.7 ng/mL), glycine (7.5 ng/mL), L-proline (11.5 ng/mL, L-serine (10.5 ng/mL), penicillin (100 U/mL), and streptomycin (100 μg/mL) had been added. The cells were cultured for another 24 hours. The culture liquid was removed again, and the cells were washed with an assay buffer (140 mmol/L sodium chloride, 5 mmol/L potassium chloride, 0.5 mmol/L magnesium chloride, 0.5 mmol/L calcium chloride, 10 mmol/L glucose, 0.4 mmol/L magnesium sulfate, 10 mmol/L HEPES, and […] sulfinpyrazone, pH 7.4) that had been kept warm at 37° C. Subsequently, an assay buffer prepared by dissolving Fura2-AM, which is a fluorescent Ca^2+ indicator, to a concentration of 5 μM, was added to the cells, and the system was incubated for 30 minutes at 37° C. The assay buffer having Fura2 dissolved therein was removed, and the cells were washed with the assay buffer. Subsequently, an assay buffer prepared by adding a test compound was added to the cells, and the system was incubated for 15 minutes. The plate was mounted on a fluorescence analyzer (FLEX STATION II, Molecular Devices, LLC), and the baseline was measured for 20 seconds. Subsequently, any change in the intracellular calcium concentration that was induced when an assay buffer prepared by adding 100 mmol/L calcium chloride was added to the cells, was measured (excited at 340 nm or 380 nm, and detected at 510 nm). The fluorescence intensity ratios obtainable at the respective wavelengths were calculated.
Meanwhile, the test compound solution was prepared by dissolving each test compound in DMSO to a concentration of 10 mmol/L, and then adjusting the concentration with the assay buffer so as to obtain the set concentration. For the control solution, DMSO was used instead of a test compound.
The inhibitory activity level (%) of a test compound was calculated by subtracting the average value of the fluorescence intensity ratio for a period of 0 to 20 seconds after initiation of measurement, from the average value of the fluorescence intensity ratio for a period of 45 to 50 seconds after initiation of measurement, taking the value obtained using the control solution as the maximum activity of Cav3.2, and comparing this value with the activity in the presence of the test compound.
Calculation of IC50 Value:
The inhibitory activity of each test compound was measured at concentrations of […], and the IC50 value was calculated using the curve fitting formula (Model 08: sigmoidal inhibition curve) of ASSAY EXPLORER (Symyx Technologies, Inc.).
Average of RFU value obtained for 25 to 30 seconds after the addition of a […] assay buffer after treatment with the control solution (for 45 to 50 seconds after the initiation of measurement). The RFU in the formula represents the Relative Fluorescence Unit.
Turning to `CC(C)(C)NC(=O)CN1[C@@H]2CC[C@H]1C[C@H](CNC(=O)CC13CC4CC(CC(C4)C1)C3)C2` [Example 18], the IC50 worked out at 0.073 µM.

With `Cc1oc2c(c1C(=O)NC[C@@H]1C[C@H]3CC[C@@H](C1)N3CC(=O)NC(C)(C)C)CCCC2` [Example 19], the concentration for half-maximal inhibition (IC50) came out at 0.048 µM.

`Cn1cc(C(=O)NC[C@@H]2C[C@H]3CC[C@@H](C2)N3CC(=O)NC(C)(C)C)c2ccccc21` [Example 24]: the IC50 amounted to 0.078 µM.

`CC(C)(C)NC(=O)CN1[C@@H]2CC[C@H]1C[C@H](CNC(=O)C(C)(C)Oc1cccc(Cl)c1)C2` [Example 31]: the IC50 came out at 0.073 µM.

Consider `CCn1cc(C(=O)NC[C@@H]2C[C@H]3CC[C@@H](C2)N3CC(=O)NC(C)(C)C)c2ccccc21` [Example 36], for which the IC50 was 0.049 µM.

For the compound `Cc1c(C(=O)NC[C@@H]2C[C@H]3CC[C@@H](C2)N3CC(=O)NC(C)(C)C)c2ccccc2n1C` [Example 37], the IC50 amounted to 0.067 µM.

Consider `Cn1cc(C(=O)NC[C@@H]2C[C@H]3CC[C@@H](C2)N3CC(=O)NC2(C(F)(F)F)CC2)c2ccccc21` [Example 45], for which the IC50 was found to be 0.103 µM.

For `COc1cc(F)cc(C(=O)NC[C@@H]2C[C@H]3CC[C@@H](C2)N3CC(=O)NC(C)(C)C)c1` [Example 56], the IC50 amounted to 0.034 µM.

For the compound `CC(C)(C)NC(=O)CN1[C@@H]2CC[C@H]1C[C@H](CNC(=O)C1CCCCC1)C2` [Example 74], the IC50 was determined as 0.101 µM.

On to `CC(C)(C)NC(=O)CN1[C@@H]2CC[C@H]1C[C@H](CNC(=O)c1ccc(Cl)cc1)C2` [Example 77], for which the IC50 came out at 0.022 µM.

With `CC(C)(C)NC(=O)CN1[C@@H]2CC[C@H]1C[C@H](CNC(=O)c1cc(F)cc(C#N)c1)C2` [Example 79], the IC50 was 0.045 µM.

For `CCc1oc2ccccc2c1C(=O)NC[C@@H]1C[C@H]2CC[C@@H](C1)N2CC(=O)NC(C)(C)C` [Example 84], the IC50 was determined as 0.01 µM.

For the compound `Cc1oc2ccccc2c1C(=O)NC[C@@H]1C[C@H]2CC[C@@H](C1)N2CC(=O)NC(C)(C)C` [Example 85], the IC50 turned out to be 0.015 µM.

Consider `COc1ccc2oc(C)c(C(=O)NC[C@@H]3C[C@H]4CC[C@@H](C3)N4CC(=O)NC(C)(C)C)c2c1` [Example 86], for which the concentration for half-maximal inhibition (IC50) turned out to be 0.091 µM.

On to `Cc1oc2c(c1C(=O)NC[C@@H]1C[C@H]3CC[C@@H](C1)N3CC(=O)NC1(C(F)(F)F)CC1)CCCC2` [Example 95], for which the IC50 came out at 0.088 µM.

With `CC(C)(C)NC(=O)CN1[C@@H]2CC[C@H]1C[C@H](CNC(=O)C13CC4CC(CC1C4)C3)C2` [Example 107], the IC50 worked out at 0.049 µM.

In the case of `O=C(CN1[C@@H]2CC[C@H]1C[C@H](CNC(=O)C13CC4CC(CC1C4)C3)C2)NC1(CO)CCCC1` [Example 109], the IC50 was 0.094 µM.

With `CC(C)(C)NC(=O)CN1[C@@H]2CC[C@H]1C[C@H](CNC(=O)c1cccc(F)c1)C2` [Example 113], the IC50 was found to be 0.039 µM.

The same assay, now with this note: HEK293 cells stably expressing human Cav3.2; Fura2 fluorescence ratio after calcium chloride addition; read-out: IC50.
Take `CC(C)(C)NC(=O)CN1[C@@H]2CC[C@H]1C[C@H](CC(=O)Nc1cccc(Cl)c1)C2` [Example 1, 2-[(exo)-8-(tert-Butylcarbamoyl)methyl-8-azabicyclo[3.2.1]octan-3-yl]-N-(3-chlorophenyl)acetamide]: the IC50 came to 0.068 µM.

In the case of `COc1cc(F)cc(NC(=O)C[C@@H]2C[C@H]3CC[C@@H](C2)N3CC(=O)NC(C)(C)C)c1` [Example 3], the IC50 amounted to 0.069 µM.

With `CC(C)(C)NC(=O)CN1[C@@H]2CC[C@H]1C[C@H](CC(=O)NC13CC4CC(CC(C4)C1)C3)C2` [Example 4, N-(Adamantan-1-yl)-2-[(exo)-8-(tert-butylcarbamoyl)methyl-8-azabicyclo[3.2.1]octan-3-yl]acetamide], the IC50 came to 0.082 µM.

With `CC(C)(C)NC(=O)CN1[C@@H]2CC[C@H]1C[C@H](CNC(=O)c1coc3ccccc13)C2` [Example 11, N-[(exo)-8-(tert-Butylcarbamoyl)methyl-8-azabicyclo[3.2.1]octan-3-yl]methylbenzofuran-3-carboxamide], the IC50 came to 0.003 µM.

In the case of `CC(C)(C)NC(=O)CN1[C@@H]2CC[C@H]1C[C@H](CNC(=O)c1csc3c1CCCC3)C2` [Example 16], the IC50 amounted to 0.047 µM.

On to `Cc1cc(C(=O)NC[C@@H]2C[C@H]3CC[C@@H](C2)N3CC(=O)NC(C)(C)C)n(C)n1` [Example 23], for which the IC50 turned out to be 0.203 µM.

In the case of `CC(C)(C)NC(=O)CN1[C@@H]2CC[C@H]1C[C@H](CNC(=O)C(C)(C)Oc1ccc(C3CC3(Cl)Cl)cc1)C2` (some centres unmarked) [Example 27], the IC50 came to 0.094 µM.

`CC(C)(C)NC(=O)CN1[C@@H]2CC[C@H]1C[C@H](CNC(=O)C(C)(C)Oc1ccccc1)C2` [Example 28]: the concentration for half-maximal inhibition (IC50) is 0.065 µM.

`COc1cccc(OC(C)(C)C(=O)NC[C@@H]2C[C@H]3CC[C@@H](C2)N3CC(=O)NC(C)(C)C)c1` [Example 32]: the IC50 came to 0.098 µM.

For `CC(C)(C)NC(=O)CN1[C@@H]2CC[C@H]1C[C@H](CNC(=O)c1cccc(Cl)c1)C2` [Example 52], the IC50 turned out to be 0.048 µM.

With `COc1cc(Cl)cc(C(=O)NC[C@@H]2C[C@H]3CC[C@@H](C2)N3CC(=O)NC(C)(C)C)c1` [Example 53], the concentration for half-maximal inhibition (IC50) came out at 0.049 µM.

Consider `Cc1cc(F)cc(C(=O)NC[C@@H]2C[C@H]3CC[C@@H](C2)N3CC(=O)NC(C)(C)C)c1` [Example 55], for which the IC50 came to 0.036 µM.

As to `CC(C)(C)NC(=O)CN1[C@@H]2CC[C@H]1C[C@H](CNC(=O)c1ccc3c(c1)CCCO3)C2` [Example 59], the IC50 turned out to be 0.061 µM.

On to `CC(C)(C)NC(=O)CN1[C@@H]2CC[C@H]1C[C@H](CNC(=O)c1cccc3c1CCC3)C2` [Example 60], for which the IC50 came to 0.078 µM.

Turning to `CC(C)(C)NC(=O)CN1[C@@H]2CC[C@H]1C[C@H](CNC(=O)C13CC4CC(CC(C4)C1)C3)C2` [Example 65], the IC50 worked out at 0.099 µM.

Consider `CC(C)(C)NC(=O)CN1[C@@H]2CC[C@H]1C[C@H](CNC(=O)C1C(C)(C)C1(C)C)C2` [Example 67], for which the IC50 was 0.042 µM.

`Cn1nc(C(C)(C)C)cc1C(=O)NC[C@@H]1C[C@H]2CC[C@@H](C1)N2CC(=O)NC(C)(C)C` [Example 69]: the IC50 turned out to be 0.051 µM.

`CC(C)(C)CCC(=O)NC[C@@H]1C[C@H]2CC[C@@H](C1)N2CC(=O)NC(C)(C)C` [Example 71]: the half-maximal inhibitory concentration (IC50) was determined as 0.064 µM.

As for `COc1cc(C)cc(C(=O)NC[C@@H]2C[C@H]3CC[C@@H](C2)N3CC(=O)NC(C)(C)C)c1` [Example 72], the IC50 was 0.055 µM.

For `CC(C)(C)NC(=O)CN1[C@@H]2CC[C@H]1C[C@H](CNC(=O)c1ccc(F)cc1)C2` [Example 78], the concentration for half-maximal inhibition (IC50) amounted to 0.044 µM.

As for `Cc1ccc(C(=O)NC[C@@H]2C[C@H]3CC[C@@H](C2)N3CC(=O)NC(C)(C)C)s1` [Example 81], the half-inhibitory concentration (IC50) is 0.093 µM.

As for `COc1cc(C)cc(C(=O)NC[C@@H]2C[C@H]3CC[C@@H](C2)N3CC(=O)NC2(C(F)(F)F)CC2)c1` [Example 96], the concentration for half-maximal inhibition (IC50) came out at 0.058 µM.

As to `Cn1cc(C(=O)NC[C@@H]2C[C@H]3CC[C@@H](C2)N3CC(=O)NC(C)(C)C)c2cc(Cl)ccc21` [Example 100, N-[(exo)-8-(tert-Butylcarbamoyl)methyl-8-azabicyclo[3.2.1]octan-3-yl]methyl-5-chloro-1-methyl-1H-indole-3-carboxamide], the IC50 was found to be 0.085 µM.

For `COCC(C)(C)NC(=O)CN1[C@@H]2CC[C@H]1C[C@H](CNC(=O)c1cc(F)cc(Cl)c1)C2` [Example 104, 3-Chloro-5-fluoro-N-{(exo)-8-[(2-methoxy-1,1-dimethylethyl)carbamoyl]methyl-8-azabicyclo[3.2.1]octan-3-yl}methylbenzamide], the IC50 stood at 0.013 µM.

Turning to `CC1(NC(=O)CN2[C@@H]3CC[C@H]2C[C@H](CNC(=O)c2cc(F)cc(Cl)c2)C3)COC1` [Example 112], the concentration for half-maximal inhibition (IC50) was determined as 0.093 µM.

Turning to `O=C(CN1[C@@H]2CC[C@H]1C[C@H](CNC(=O)c1cc(F)cc(Cl)c1)C2)NC1(C(F)(F)F)CC1` [Example 114], the IC50 stood at 0.07 µM.
